Experiment: xn = mol fraction of the nth substance listed
Conditions: 100 kPa

CS(C)=O + CCCC[n+]1ccn(C)c1.[Cl-]
Conditions	speed of sound [m/s]
313.15 K, x2 = 0	1442

CS(C)=O + CC[n+]1ccn(C)c1.[Cl-]
x2 = 0
Conditions	speed of sound [m/s]
298.15 K	1496
303.15 K	1472

CCCC[n+]1ccn(C)c1.[Cl-] + CS(C)=O
313.15 K
Conditions	speed of sound [m/s]
x1 = 0.0341	1491
x1 = 0.1122	1569
x1 = 0.2433	1650
x1 = 0.3032	1674
x1 = 0.3705	1696
x1 = 0.4746	1732
x1 = 0.5997	1773
x1 = 0.7115	1794
x1 = 0.843	1816
x1 = 0.9445	1829

CC[n+]1ccn(C)c1.[Cl-] + CS(C)=O
speed of sound [m/s]
Conditions	298.15 K	303.15 K	308.15 K	313.15 K
x1 = 0.0194	–	–	1473	1455
x1 = 0.0453	1517	–	1485	–
x1 = 0.0677	1532	1509	1498	1480
x1 = 0.0984	1551	1527	1516	–
x1 = 0.1236	1563	1539	1527	1508
x1 = 0.1619	1582	1560	1547	1528
x1 = 0.2143	–	1583	1571	1550
x1 = 0.2927	–	–	–	1586
x1 = 0.3737	1675	1652	1638	1618
x1 = 0.4429	1701	1678	1665	1645
x1 = 0.5264	1730	1709	1694	1675
x1 = 0.6072	–	1736	1723	1705
x1 = 0.7477	–	1787	1776	1758
x1 = 0.7986	1828	1812	1801	1783
x1 = 0.8501	–	1833	1822	1804
x1 = 0.8944	1869	1855	1843	1826
x1 = 0.9396	1893	1880	1869	1854
x1 = 0.9694	1910	1894	1883	1868
x1 = 1	1935	1923	1918	1894
x2 = 0.0071	1929	1914	1903	1887

Source: a compilation of properties of binary mixtures (doi:10.1021/jp403813g)
